Results from patent US20090318494A1, “PYRAZOLO[3,4-B]PYRIDINE COMPOUNDS, AND THEIR USE AS PDE4 INHIBITORS” (Glaxo Group Limited, priority 2006, published 2009).
Structures can show the parent of a compound that is named as a salt. Each block holds one compound with its values, some of them ahead of it.

What was measured:
COPD patients = details: cited from earlier work
[1] = target: T1, PDE4B (human recombinant) (Homo sapiens, UniProt Q07343); test: Inhibition of PDE4B activity: IMAP Fluorescence Polarisation (FP) assay; format: biochemical; details: FP assay or generally similar assay; each limit ±about 0.5; n=1 or average of 2 or more readings; read-out: PDE4B inhibitory activities, pIC50 (converted)
T1 construct: made in house; host or cells: Saccharomyces cerevisiae strain GL62 (named as a possible source, as described in WO 94/20079)
Text: The ability of compounds to inhibit catalytic activity at PDE4B (human recombinant) or PDE4D (human recombinant) can optionally be determined by IMAP Fluorescence Polarisation (FP) assay (IMAP Explorer kit, available from Molecular Devices Corporation, Sunnydale, Calif., USA; Molecular Devices code: R8062) in 384-well format.
The IMAP FP assay is able to measure PDE activity in an homogenous, non-radioactive assay format. The FP assay uses the ability of immobilised trivalent metal cations, coated onto nanoparticles (tiny beads), to bind the phosphate group of Fl-AMP that is produced on the hydrolysis of fluorescein-labelled (Fl) cyclic adenosine mono-phosphate (Fl-cAMP) to the non-cyclic Fl-AMP form. […] Binding of Fl-AMP product to the beads (coated with the immobilised trivalent cations) slows the rotation of the bound Fl-AMP and leads to an increase in the fluorescence polarisation ratio of parallel to perpendicular light. Inhibition of the PDE reduces/inhibits this signal increase.
Test compounds (small volume, e.g. ca. 0.5 to 1 microlitres (ul), suitably ca. 0.5 ul, of solution in DMSO) are preincubated at ambient temperature (room temperature, e.g. 19-23° C.) in black 384-well microtitre plates (supplier: NUNC, code 262260) with PDE enzyme in 10 mM Tris-HCl buffer pH 7.2, 10 mM MgCl2, 0.1% (w/v) bovine serum albumin, and 0.05% NaN3 for 10-30 minutes. The enzyme level is set by experimentation so that reaction is linear throughout the incubation. Fluorescein adenosine 3′,5′-cyclic phosphate (from Molecular Devices Corporation, Molecular Devices code: R7091) is added to give about 40 nM final concentration (final assay volume usually ca. 20-40 ul, suitably ca. 20 ul). Plates are mixed on an orbital shaker for 10 seconds and incubated at ambient temperature for 40 minutes. IMAP binding reagent (as described above, from Molecular Devices Corporation, Molecular Devices code: R7207) is added (60 ul of a 1 in 400 dilution in binding buffer of the kit stock solution) to terminate the assay. Plates are allowed to stand at ambient temperature for 1 hour. The Fluorescence Polarisation (FP) ratio of parallel to perpendicular light is measured using an Analyst™ plate reader (from Molecular Devices Corporation). For inhibition curves, 10 concentrations (e.g. 1.5 nM-30 uM) of each compound are assayed. Curves are analysed using ActivityBase and XLfit (ID Business Solutions Limited, 2 Ocean Court, Surrey Research Park, Guildford, Surrey GU2 7QB, United Kingdom). Results are expressed as pIC50 values.
In the FP assay, reagents can be dispensed using Multidrop™ (available from Thermo Labsystems Oy, Ratastie 2, PO Box 100, Vantaa 01620, Finland).

[2] = system: atopic dermatitis patients; details: cited from earlier work

T1 sequence (Q07343 1-564 isoform Q07343-2): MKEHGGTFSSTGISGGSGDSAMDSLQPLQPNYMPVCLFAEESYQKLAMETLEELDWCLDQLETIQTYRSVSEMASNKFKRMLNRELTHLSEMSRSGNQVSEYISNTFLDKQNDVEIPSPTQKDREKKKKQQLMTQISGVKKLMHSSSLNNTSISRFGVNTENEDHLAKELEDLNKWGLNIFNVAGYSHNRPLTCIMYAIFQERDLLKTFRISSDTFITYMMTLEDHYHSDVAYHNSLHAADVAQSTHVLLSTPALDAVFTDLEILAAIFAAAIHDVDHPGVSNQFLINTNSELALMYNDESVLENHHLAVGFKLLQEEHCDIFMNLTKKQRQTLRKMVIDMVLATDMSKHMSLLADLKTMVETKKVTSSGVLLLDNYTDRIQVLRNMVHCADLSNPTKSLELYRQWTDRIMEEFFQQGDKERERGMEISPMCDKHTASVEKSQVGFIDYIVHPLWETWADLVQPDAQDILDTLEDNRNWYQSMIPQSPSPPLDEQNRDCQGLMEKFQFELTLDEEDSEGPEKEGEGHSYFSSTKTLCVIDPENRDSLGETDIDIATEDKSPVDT

Structure (SMILES): COc1ccc([C@]2(C#N)CC[C@@H](C(=O)O)CC2)cc1OC1CCCC1 [cilomilast]
forced expiratory volume in 1s (FEV1) (COPD patients; 15 mg orally twice daily): appears to improve forced expiratory volume in 1s (FEV1)
antiinflammatory effects in COPD patients (COPD patients): appears to have antiinflammatory effects

Structure (SMILES): COc1ccc(C2CNC(=O)NC2)cc1O[C@H]1C[C@@H]2CC[C@H]1C2 [CP80,633]
inflammatory parameters in atopic dermatitis patients ([2]; 0.5% ointment, twice daily topical application): reductions of inflammatory parameters

Structure (SMILES): O=C(Nc1c(Cl)cncc1Cl)c1ccc(OC(F)F)c(OCC2CC2)c1 [roflumilast]
FEV1 in COPD patients (COPD patients): appears to show small improvements in FEV1

Structure (SMILES): Nc1nc2c([nH]1)c(=O)n(CC1CC1)c(=O)n2CC1CC1 [cipamfylline]
efficacy in the treatment of atopic dermatitis patients versus hydrocortisone 17-butyrate (0.1%) cream ([2]; 0.15% cream): significantly less effective than hydrocortisone 17-butyrate (0.1%) cream
efficacy in the treatment of atopic dermatitis patients versus vehicle ([2]; 0.15% cream): significantly more effective than vehicle

Next, values leading:

IC50 [1]: 0.2 to 1.58 nM
Structure (SMILES): CCc1nc2c(cnn2CC)c(NC2CCOCC2)c1CNC(=O)CCCCCCCN1CCC[C@H]1COC [Example 16, N-{[1,6-diethyl-4-(tetrahydro-2H-pyran-4-ylamino)-1H-pyrazolo[3,4-b]pyridin-5-yl]methyl}-8-{(2S)-2-[(methyloxy)methyl]-1-pyrrolidinyl}octanamide trifluoroacetate]

IC50 [1]: 0.2 to 1.58 nM
Structure (SMILES): CCc1nc2c(cnn2CC)c(NC2CCN(C(N)=O)CC2)c1CNC(=O)CCCCCCCN1CCC[C@H]1COC [Example 8, 4-[(1,6-diethyl-5-{[(8-{(2S)-2-[(methyloxy)methyl]-1-pyrrolidinyl}octanoyl)amino]methyl}-1H-pyrazolo[3,4-b]pyridin-4-yl)amino]-1-piperidinecarboxamide trifluoroacetate]

IC50 [1]: 0.2 to 1.58 nM
Structure (SMILES): CCc1nc2c(cnn2CC)c(NC2CCN(C(N)=O)CC2)c1CNC(=O)CCCCCCCN1CCC[C@@H]1COC [Example 7, 4-[(1,6-diethyl-5-{[(8-{(2R)-2-[(methyloxy)methyl]-1-pyrrolidinyl}octanoyl)amino]methyl}-1H-pyrazolo[3,4-b]pyridin-4-yl)amino]-1-piperidinecarboxamide trifluoroacetate]

IC50 [1]: 0.2 to 1.58 nM
Structure (SMILES): CCc1nc2c(cnn2CC)c(NC2CCOCC2)c1CNC(=O)CCCCCCCN1CCC[C@@H]1COC [Example 15, N-{[1,6-diethyl-4-(tetrahydro-2H-pyran-4-ylamino)-1H-pyrazolo[3,4-b]pyridin-5-yl]methyl}-8-{(2R)-2-[(methyloxy)methyl]-1-pyrrolidinyl}octanamide trifluoroacetate]
